Assay: gradient 5% acetonitrile 3 min, to 50% in 2 min, to 85% in 15 min, held 3 min, 100 µL/min
Details: column: Zorbax Extend-C18 2.1 x 50 mm; eluents: water / acetonitrile, 0.1% formic acid
Procedure, shortened: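 Values are retention times taken from adduct peaks that software picked and an analyst inspected. The pure standards were run as mixtures of ~100 molecules on HPLC linked to a quadrupole time-of-flight mass spectrometer, in positive and negative ionization mode. A Zorbax Extend-C18 column (2.1 × 50 mm, 1.8 μm) was used at 100 μL/min with water and acetonitrile, each including 0.1% formic acid.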

Row | Compound | RP-LC retention time
1 | CCOCCCNC(=O)N1CCC2(CC1)NC(=O)c1ccccc1O2 | 652 s
2 | CCOCCCNC(=O)c1cc2sc(Cl)cc2n1C | 939 s
3 | COCCCNC(=O)Cn1c(=O)n(-c2ccccc2)c2ncccc21 | 650 s
4 | O=C(Nc1ccc(F)cc1)N1CCC(n2cnc3c(Cl)cccc3c2=O)CC1 | 805 s
5 | COc1ccc(-c2ncc3c(n2)CCN(S(=O)(=O)c2ccc(Cl)s2)C3)cc1 | 1140 s
6 | CCn1cc(-c2nc(C(=O)NCc3cc(F)cc(F)c3)cs2)c2cccnc21 | 1030 s
7 | CC(C)NC(=O)CN1C(=O)C2CCCCN2c2ccc(C(=O)N3CCCCC3)cc21 (centres undefined) | 735 s
8 | Cc1ccc(N2CCC(NC(=O)c3ccc(F)cc3)C2=O)cc1C (centres undefined) | 828 s
9 | CCOc1ccc(-c2noc(Cn3nc(-c4ccccc4)ccc3=O)n2)cc1 | 1070 s
10 | O=C(Nc1ccc2ncccc2c1)Nc1ccc2ncccc2c1 | 604 s
11 | NC(=O)C1CCN(C(=O)NC2CC(=O)N(c3ccc(Cl)cc3)C2)CC1 (centres undefined) | 587 s
12 | Cc1cc(C)c(S(=O)(=O)N2CCC(C(=O)NCCc3csc(-c4ccccc4)n3)CC2)cc1C | 1070 s
13 | CCC(=O)N1CCN(C(=O)c2ccccc2)CC1 | 693 s
14 | Cc1cc(Nc2ccccc2)nc(N2CCN(C(=O)Nc3ccc(Cl)cc3)CC2)n1 | 761 s
15 | CC(C)(C)NC(=O)c1ccc(-n2cc(CNC(=O)C3CC3)cn2)cc1 | 711 s
16 | O=C(NCCc1c[nH]c2ccccc12)c1cc2cccnc2n(Cc2ccc(F)cc2)c1=O | 1090 s
17 | NC(=O)Cn1c(Cc2ccccc2Cl)nc2ccccc21 | 591 s
18 | CC(=O)c1ccc(NC(=O)Cn2c(-c3ccc(Cl)cc3)nc(C)cc2=O)cc1 | 1040 s
19 | c1cc2c(cc1-c1nnc(C3CCCC3)o1)OCO2 | 944 s
20 | COc1cccc(N2CCN(S(=O)(=O)c3cc(-c4cc(C(F)(F)F)on4)sc3C)CC2)c1 | 1260 s
21 | COC(=O)c1ccc(-c2nc3cnccn3c2Nc2ccc(OC)cc2)cc1 | 826 s
22 | COCCn1cc(C(=O)N2CCCc3ccccc32)c2nn(-c3ccccc3)c(=O)c-2c1 | 943 s
23 | CCOC(=O)c1ccc(N2C(=O)c3n[nH]c(C)c3C2c2ccc(OC)cc2OC)cc1 (centres undefined) | 878 s

Row | Compound | RP-LC retention time
24 | CCN1CCN(C(=O)c2nc3ccccn3c2-c2ccc(Cl)cc2)CC1 | 591 s
25 | COc1ccccc1CC(=O)NC1CCN(Cc2c(C)noc2C)C1 (centres undefined) | 584 s
26 | Cc1noc(-c2ccc(NC(=O)COc3ccc(Cl)cc3Cl)cc2)n1 | 1030 s
27 | COCC(=O)N1CCC2(CC1)NC(=O)N(CCc1ccccc1)C2=O | 631 s
28 | CC1(C(=O)NC2CCCC2)CN(S(=O)(=O)c2ccccc2)CC(=O)N1c1ccc(F)cc1 (centres undefined) | 892 s
29 | O=C(NC1CCCC1)C1CCc2sc(C(=O)N3CCCCCC3)cc2C1 (centres undefined) | 900 s
30 | CN(C)c1ncncc1N1CCC(C(=O)NCc2ccco2)CC1 | 588 s
31 | COc1ccc(NC(=O)Cn2nc(C(=O)N3CCCC3)c3ccccc32)cc1 | 800 s
32 | Cn1c(=O)c2nc(S(=O)(=O)CCC(=O)Nc3cc(F)ccc3F)n(C)c2n(C)c1=O | 730 s
33 | COc1ccc(NC(=O)C2CCCN(c3nccnc3Sc3ccccc3)C2)cc1Cl (centres undefined) | 1150 s
34 | Cc1ccc(C)c(NC(=O)Cn2cccc(-c3nc(-c4ccc(Br)cc4)no3)c2=O)c1 | 1030 s
35 | COc1ccc(NS(=O)(=O)c2ccc(-c3nnc(C4CCC4)o3)o2)cc1Cl | 936 s
36 | CCCn1c(=O)sc2cc(S(=O)(=O)N3CCC(C(=O)N4CCN(CC)CC4)CC3)ccc21 | 640 s
37 | CN1C(=O)CCC2(CNC(=O)c3cnccn3)CCC=C12 (centres undefined) | 644 s
38 | Cc1ccc(C2=NC3(CCN(C(=O)c4ccn[nH]4)CC3)ON2)cc1 | 680 s
39 | O=C(CN1CCN(Cc2ccc(F)cc2)C1=O)NCCCn1cccn1 | 672 s
40 | Cc1ccnc(NC(=O)C2CCN(S(=O)(=O)c3ccc4c(c3)sc(=O)n4C)CC2)c1 | 645 s
41 | Cc1nn(-c2cc(N3CCCCC3)ncn2)c(C)c1CCC(=O)N1CCN(c2ccccn2)CC1 | 639 s
42 | CC1(C(=O)NC2CCCCCCC2)CN(S(C)(=O)=O)CC(=O)N1c1ccccc1Cl (centres undefined) | 924 s
43 | COc1ccc(-c2noc(C3CCCN3C(=O)NC3CCCC3)n2)cc1 (centres undefined) | 881 s
44 | CCOc1ccc(C2Cn3nnc(-c4nc(-c5ccc(C(F)(F)F)cc5)no4)c3CO2)cc1 (centres undefined) | 1340 s
45 | CN1CCN(CCNC(=O)c2cnn3c4c(cnc23)CCCCCC4)CC1 | 599 s
46 | O=C(NCc1cccnc1)C1CCN(c2nc3ccc(-c4cncnc4)nc3s2)CC1 | 584 s

Row | Compound | RP-LC retention time
47 | O=C(Cn1c(=O)cc(C(=O)N2CCCC2)c2ccccc21)Nc1cc(F)ccc1F | 737 s
48 | CCc1ccccc1Nc1nc(-c2ccc(Cl)cc2)cs1 | 1310 s
49 | CC(C)c1ccc(NC(=O)C2CC(=O)N(CCc3c[nH]c4ccc(Cl)cc34)C2)cc1 (centres undefined) | 983 s
50 | Cn1c(N2CCN(C(=O)Cc3ccc(F)cc3)CC2)cc(=O)n(C)c1=O | 680 s
51 | O=C(Nc1ccc2c(c1)OCCO2)N1CCN(c2cc(-c3ccccc3)ncn2)CC1 | 645 s
52 | COC(=O)c1ccc2c(=O)n(Cc3ccc(OC)cc3)c(N3CCC(C(N)=O)CC3)nc2c1 | 744 s
53 | O=c1c(=O)n(-c2ccccc2)ccn1Cc1cccc(C(F)(F)F)c1 | 770 s
54 | Cc1ccc(C(=O)NCCc2nc3cccnc3n2C)s1 | 596 s
55 | COc1ccc(N2CCN(c3nc(C)cc(C)n3)CC2)cc1 | 745 s
56 | CCN1C(=O)COc2ccc(-c3noc(-c4cccc(OC)c4)n3)cc21 | 1130 s
57 | CCC(=O)NC(C)c1nc(-c2ccc(C)cc2)no1 (centres undefined) | 777 s
58 | Cc1csc(NC(=O)CN2C(=O)C3CCCCN3c3ccc(S(=O)(=O)N(C)C)cc32)n1 (centres undefined) | 853 s
59 | COc1ccc(S(=O)(=O)N2CC3CN(C(=O)C4CCOC4)CC(C2)O3)cc1 (centres undefined) | 659 s
60 | CN(C)CCN(Cc1ccccc1)C(=O)Cn1c(=O)oc2ccccc21 | 645 s
61 | Cc1noc2nc(C)n(CC(=O)Nc3ccc(F)c(F)c3)c(=O)c12 | 790 s
62 | COc1ccc(-c2cn3c(CC(=O)Nc4cc(Cl)ccc4OC)csc3n2)cc1 | 847 s
63 | Cc1cccc(C)c1-n1ccn(Cc2nc(-c3ccc(Cl)cc3)no2)c(=O)c1=O | 978 s
64 | CC(C(=O)Nc1ccc(F)cc1)C1CCN(C(=O)Nc2ccc(F)cc2)CC1 (centres undefined) | 834 s
65 | COC(=O)c1c(NCCc2cccs2)c2cccc(Cl)c2[nH]c1=O | 823 s
66 | Cc1nn(-c2cc(N3CCCC3)ncn2)c(C)c1CCC(=O)NCCc1ccco1 | 721 s
67 | Cc1ccc(NC(=O)C2(Cc3ccccc3)CCCCC(=O)N2)cc1 (centres undefined) | 848 s
68 | O=C(c1ccc(F)c(Cl)c1)N1CCN(c2cc(-c3ccc(F)cc3)[nH]n2)CC1 | 894 s
69 | CCCn1c(=O)sc2cc(S(=O)(=O)N3CCC(C(=O)Nc4ccc(C)cc4C)CC3)ccc21 | 997 s

Row | Compound | RP-LC retention time
70 | O=C(NCc1ccc(F)cc1Cl)C1CCN(c2ncnc3c2oc2ccccc23)CC1 | 790 s
71 | Cc1ccc(-c2noc(C3CCCN3C(=O)CNS(=O)(=O)c3ccc(Cl)cc3)n2)cc1 (centres undefined) | 1030 s
72 | Cc1cc(F)ccc1NS(=O)(=O)c1c[nH]c2ncccc12 | 735 s
73 | Cc1ccc(C)c(NC(=O)N2CCN(c3cnn4c(C)nnc4c3)CC2)c1 | 629 s
74 | COCC(=O)N1CCC(Oc2nccnc2N2CCOCC2)C1 (centres undefined) | 584 s
75 | CCCNC(=O)C1CCN(c2ccc(SCC(=O)Nc3ccc4c(c3)CCC4)nn2)CC1 | 707 s
76 | COC(=O)c1ccc(C(=O)NCC2CCN(c3ncccn3)CC2)cc1 | 635 s
77 | COc1ccccc1N1CCN(c2ncc(C(F)(F)F)cc2Cl)CC1 | 1210 s
78 | Cc1noc([C@H]2CCN(C3CCSCC3)C[C@H]2NC(=O)C2CC2)n1 | 576 s
79 | COc1ccc(NC(=O)Nc2cccn3c(C4CCC4)nnc23)cc1F | 815 s
80 | Cn1c(C(=O)N(CCc2ccccc2)Cc2ccccc2)cc2c(=O)n3ccccc3nc21 | 1030 s
81 | CCc1ccc(NC(=O)Cn2c(=O)n(-c3ccc(C)cc3)c(=O)c3c2cc(C)n3C)cc1 | 956 s
82 | Cc1cc(Cl)ccc1NC(=O)N1CCC2(CC1)c1nccn1CCN2C | 612 s
83 | O=C(NCC1(O)CCCC1)C1CC(=O)N(c2ccccc2)C1 (centres undefined) | 624 s
84 | COc1ccc(Nc2nc(N3CCN(CCO)CC3)nc3c2C(=O)CCC3)cc1 | 637 s
85 | COc1ccc(S(=O)(=O)N2CCN(CCO)CC2)c2ccccc12 | 573 s
86 | CCN1C(=O)COc2ccc(-c3noc(-c4ccc5cc[nH]c5c4)n3)cc21 | 1040 s
87 | Cc1cc(-c2nnc(-c3ccc(F)cc3)o2)c(C)n1CC(=O)N1CCCCC1 | 877 s
88 | CCc1ccc(NC(=O)C2CCc3nc(N(CC)CC)ncc3C2)cc1 (centres undefined) | 799 s
89 | CCc1nccn1Cc1nc(-c2ccc(OC)c(OC)c2)no1 | 618 s
